Laboratory results published in ChEMBL document CHEMBL1201862, “PubChem BioAssay data set” (2004).
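Five compound concentrations were applied to cells in 96-well plates for 48 hours; endpoints were derived by simple linear interpolation of the resulting dose-response curve. The concentration for 50% growth inhibition is given as GI50.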 Calls of active or inactive are those of the source. Rule as the data show it: active = GI50 up to about 1.1 µM and inactive = higher.

Columns and labels:
Assay in all cases: DTP human tumour cell line panel, 48 h
[1] = system: 786-0
[2] = system: A498
[3] = system: A549
[4] = system: ACHN
[5] = system: BT-549
[6] = system: CAKI-1
[7] = system: CCRF-CEM
[8] = system: COLO 205
[9] = system: DU-145
[10] = system: EKVX
[11] = system: HCC 2998
[12] = system: HCT-116
[13] = system: HCT-15
[14] = system: HL-60
[15] = system: HOP-62
[16] = system: HOP-92
[17] = system: HT-29
[18] = system: Hs-578T
[19] = system: IGROV-1
[20] = system: K562
[21] = system: KM12
[22] = system: LOX IMVI
[23] = system: MCF7
[24] = system: MDA-MB-231
[25] = system: MDA-MB-435
[26] = system: MDA-N
[27] = system: MOLT-4
[28] = system: Malme-3M
[29] = system: NCI-H226
[30] = system: NCI-H23
[31] = system: NCI-H460
[32] = system: NCI-H522
[33] = system: NCI/ADR-RES
[34] = system: OVCAR-3
[35] = system: OVCAR-4
[36] = system: OVCAR-5
[37] = system: OVCAR-8
[38] = system: PC-3
[39] = system: RPMI-8226
[40] = system: RXF 393
[41] = system: SF-268
[42] = system: SF-295
[43] = system: SF-539
[44] = system: SK-MEL-28
[45] = system: SK-MEL-2
[46] = system: SK-MEL-5
[47] = system: SK-OV-3
[48] = system: SN12C
[49] = system: SNB-75
[50] = system: SR
[51] = system: SW-620
[52] = system: T47D
[53] = system: TK-10
[54] = system: U-251
[55] = system: UACC-257
[56] = system: UACC-62
[57] = system: UO-31
[58] = system: M14
[59] = system: SNB-19

Compound: Nc1nc(Cl)cc(NCC2(O)CCCC2)n1
- GI50 [1]: > 100 µM (inactive)
- GI50 [2]: > 100 µM (inactive)
- GI50 [3]: > 100 µM (inactive)
- GI50 [4]: > 100 µM (inactive)
- GI50 [5]: > 100 µM (inactive)
- GI50 [6]: > 100 µM (inactive)
- GI50 [7]: > 100 µM (inactive)
- GI50 [8]: > 100 µM (inactive)
- GI50 [9]: > 100 µM (inactive)
- GI50 [10]: > 100 µM (inactive)
- GI50 [11]: > 100 µM (inactive)
- GI50 [12]: > 100 µM (inactive)
- GI50 [13]: > 100 µM
- GI50 [14]: > 100 µM (inactive)
- GI50 [15]: > 100 µM (inactive)
- GI50 [16]: > 100 µM (inactive)
- GI50 [17]: > 100 µM (inactive)
- GI50 [18]: > 100 µM (inactive)
- GI50 [19]: > 100 µM (inactive)
- GI50 [20]: > 100 µM (inactive)
- GI50 [21]: > 100 µM (inactive)
- GI50 [22]: > 100 µM (inactive)
- GI50 [23]: > 100 µM (inactive)
- GI50 [24]: > 100 µM (inactive)
- GI50 [25]: > 100 µM (inactive)
- GI50 [26]: > 100 µM (inactive)
- GI50 [27]: > 100 µM (inactive)
- GI50 [28]: > 100 µM (inactive)
- GI50 [29]: > 100 µM (inactive)
- GI50 [30]: > 100 µM (inactive)
- GI50 [31]: > 100 µM (inactive)
- GI50 [32]: > 100 µM (inactive)
- GI50 [33]: > 100 µM (inactive)
- GI50 [34]: > 100 µM (inactive)
- GI50 [35]: > 100 µM (inactive)
- GI50 [36]: > 100 µM (inactive)
- GI50 [37]: > 100 µM (inactive)
- GI50 [38]: > 100 µM (inactive)
- GI50 [39]: > 100 µM (inactive)
- GI50 [40]: > 100 µM (inactive)
- GI50 [41]: > 100 µM (inactive)
- GI50 [42]: > 100 µM (inactive)
- GI50 [43]: > 100 µM (inactive)
- GI50 [44]: > 100 µM (inactive)
- GI50 [45]: > 100 µM (inactive)
- GI50 [46]: > 100 µM (inactive)
- GI50 [47]: > 100 µM (inactive)
- GI50 [48]: > 100 µM (inactive)
- GI50 [49]: > 100 µM (inactive)
- GI50 [50]: > 100 µM (inactive)
- GI50 [51]: > 100 µM (inactive)
- GI50 [52]: > 100 µM (inactive)
- GI50 [53]: > 100 µM (inactive)
- GI50 [54]: > 100 µM (inactive)
- GI50 [55]: > 100 µM (inactive)
- GI50 [56]: > 100 µM (inactive)
- GI50 [57]: 78.9 µM (inactive)

Compound: COC1=C(OC)C23CCc4ccc(OC)c(O)c4C2(CCN3)CC1=O (stereo not given)
- GI50 [1]: > 100 µM (inactive)
- GI50 [2]: > 100 µM (inactive)
- GI50 [3]: > 100 µM (inactive)
- GI50 [4]: > 100 µM (inactive)
- GI50 [5]: > 100 µM (inactive)
- GI50 [6]: > 100 µM (inactive)
- GI50 [7]: > 100 µM (inactive)
- GI50 [8]: > 100 µM (inactive)
- GI50 [9]: > 100 µM (inactive)
- GI50 [10]: > 100 µM (inactive)
- GI50 [11]: > 100 µM (inactive)
- GI50 [12]: > 100 µM (inactive)
- GI50 [13]: > 100 µM
- GI50 [14]: > 100 µM (inactive)
- GI50 [15]: > 100 µM (inactive)
- GI50 [16]: > 100 µM (inactive)
- GI50 [17]: > 100 µM (inactive)
- GI50 [18]: > 100 µM (inactive)
- GI50 [19]: > 100 µM (inactive)
- GI50 [20]: > 100 µM (inactive)
- GI50 [21]: > 100 µM (inactive)
- GI50 [22]: > 100 µM (inactive)
- GI50 [58]: > 100 µM (inactive)
- GI50 [23]: > 100 µM (inactive)
- GI50 [24]: > 100 µM (inactive)
- GI50 [25]: > 100 µM (inactive)
- GI50 [26]: > 100 µM (inactive)
- GI50 [27]: > 100 µM (inactive)
- GI50 [28]: > 100 µM (inactive)
- GI50 [29]: > 100 µM (inactive)
- GI50 [30]: > 100 µM (inactive)
- GI50 [31]: > 100 µM (inactive)
- GI50 [32]: > 100 µM (inactive)
- GI50 [33]: > 100 µM (inactive)
- GI50 [34]: > 100 µM (inactive)
- GI50 [35]: > 100 µM (inactive)
- GI50 [36]: > 100 µM (inactive)
- GI50 [37]: > 100 µM (inactive)
- GI50 [38]: > 100 µM (inactive)
- GI50 [39]: > 100 µM (inactive)
- GI50 [40]: > 100 µM (inactive)
- GI50 [41]: > 100 µM (inactive)
- GI50 [42]: > 100 µM (inactive)
- GI50 [43]: > 100 µM (inactive)
- GI50 [44]: > 100 µM (inactive)
- GI50 [45]: > 100 µM (inactive)
- GI50 [46]: > 100 µM (inactive)
- GI50 [47]: > 100 µM (inactive)
- GI50 [48]: > 100 µM (inactive)
- GI50 [59]: > 100 µM (inactive)
- GI50 [49]: > 100 µM (inactive)
- GI50 [50]: > 100 µM (inactive)
- GI50 [51]: > 100 µM (inactive)
- GI50 [52]: > 100 µM (inactive)
- GI50 [53]: > 100 µM (inactive)
- GI50 [54]: > 100 µM (inactive)
- GI50 [55]: > 100 µM (inactive)
- GI50 [56]: > 100 µM (inactive)
